According to the supplement of paper PMC10307832:

Experiments:
Experiment in all cases: relative viability (nuclei count vs DMSO), 5 days (fraction); higher = more cells survive
Carboplatin + Alpelisib = compound: C1CC(C1)(C(=O)O)C(=O)O.[NH2-].[NH2-].[Pt+2] [Carboplatin] + Cc1nc(NC(=O)N2CCC[C@H]2C(N)=O)sc1-c1ccnc(C(C)(C)C(F)(F)F)c1 [Alpelisib] (partner 2 µM)
Method in brief: (§1)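 Values are medians from duplicate plates. Each reflects relative viability, defined as the nuclei count of treated wells over that of vehicle wells. Lung cancer cell lines in 1536-well plates were pin-tool dosed one day after seeding with one drug alone or with a fixed anchor-drug dose plus five library-drug doses (not always all listed) in √10 steps, then fixed, stained and imaged at 4× after 5 days.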

MLN4924 + AZD7762 = compound: NS(=O)(=O)OC[C@@H]1C[C@@H](n2ccc3c(N[C@H]4CCc5ccccc54)ncnc32)C[C@@H]1O [MLN4924] + NC(=O)Nc1cc(-c2cccc(F)c2)sc1C(=O)N[C@H]1CCCNC1 [AZD7762] (partner 0.2 µM)
Method in brief: as §1

GSK126 + Tozasertib = compound: CC[C@H](C)N1C=C(C2=C(C=C(C=C21)C3=CN=C(C=C3)N4CCNCC4)C(=O)NCC5=C(C=C(NC5=O)C)C)C [GSK126] + Cc1cc(Nc2cc(N3CCN(C)CC3)nc(Sc3ccc(NC(=O)C4CC4)cc3)n2)n[nH]1 [Tozasertib] (partner 0.1 µM)
Method in brief: as §1

MLN4924 + Navitoclax = compound: NS(=O)(=O)OC[C@@H]1C[C@@H](n2ccc3c(N[C@H]4CCc5ccccc54)ncnc32)C[C@@H]1O [MLN4924] + CC1(C)CCC(c2ccc(Cl)cc2)=C(CN2CCN(c3ccc(C(=O)NS(=O)(=O)c4ccc(N[C@H](CCN5CCOCC5)CSc5ccccc5)c(S(=O)(=O)C(F)(F)F)c4)cc3)CC2)C1 [Navitoclax] (partner 0.5 µM)
Method in brief: as §1

Row | Cell Line | relative viability (Carboplatin + Alpelisib; first compound 0.08 µM) | relative viability (Carboplatin + Alpelisib; first compound 0.253 µM) | relative viability (Carboplatin + Alpelisib; first compound 0.8 µM) | relative viability (Carboplatin + Alpelisib; first compound 2.53 µM) | relative viability (Carboplatin + Alpelisib; first compound 8 µM) | relative viability (MLN4924 + AZD7762; first compound 0.04 µM) | relative viability (MLN4924 + AZD7762; first compound 0.1265 µM) | relative viability (MLN4924 + AZD7762; first compound 0.4 µM) | relative viability (MLN4924 + AZD7762; first compound 1.265 µM) | relative viability (MLN4924 + AZD7762; first compound 4 µM) | relative viability (GSK126 + Tozasertib; first compound 0.08 µM) | relative viability (GSK126 + Tozasertib; first compound 0.253 µM) | relative viability (GSK126 + Tozasertib; first compound 0.8 µM) | relative viability (GSK126 + Tozasertib; first compound 2.53 µM) | relative viability (GSK126 + Tozasertib; first compound 8 µM) | relative viability (MLN4924 + Navitoclax; first compound 0.04 µM) | relative viability (MLN4924 + Navitoclax; first compound 0.1265 µM) | relative viability (MLN4924 + Navitoclax; first compound 0.4 µM) | relative viability (MLN4924 + Navitoclax; first compound 1.265 µM) | relative viability (MLN4924 + Navitoclax; first compound 4 µM)
1 | H3255 | 0.685 | 0.698 | 0.673 | 0.657 | 0.575 | 0.784 | 0.797 | 0.457 | 0.267 | 0.33 | 0.704 | 0.65 | 0.74 | 0.614 | 0.466 | 0.592 | 0.434 | 0.226 | 0.131 | 0.175
2 | A-427 | 1.14 | 1.09 | 1.02 | 1.05 | 1.06 | 0.502 | 0.324 | 0.366 | 0.172 | 0.217 | 0.227 | 0.245 | 0.189 | 0.226 | 0.162 | 0.468 | 0.321 | 0.273 | 0.221 | 0.227
3 | NCI-H1993 | 0.663 | 0.745 | 0.643 | 0.62 | 0.678 | 0.756 | 0.572 | 0.424 | 0.369 | 0.405 | 0.586 | 0.639 | 0.585 | 0.659 | 0.649 | 0.962 | 0.618 | 0.584 | 0.505 | 0.584
4 | NCI-H1944 | 0.98 | 0.857 | 0.813 | 0.701 | 0.643 | 0.766 | 0.627 | 0.39 | 0.186 | 0.123 | 0.261 | 0.24 | 0.247 | 0.23 | 0.28 | 1.05 | 0.979 | 0.873 | 0.209 | 0.215
5 | NCI-H1915 | 1.05 | 1.06 | 0.966 | 0.893 | 0.675 | 0.844 | 0.786 | 0.713 | 0.265 | 0.162 | 0.486 | 0.436 | 0.447 | 0.438 | 0.415 | 0.725 | 0.744 | 0.642 | 0.246 | 0.265
6 | NCI-H460 | 0.462 | 0.424 | 0.325 | 0.322 | 0.0696 | 0.575 | 0.772 | 0.621 | 0.206 | 0.0543 | 0.419 | 0.33 | 0.574 | 0.352 | 0.103 | 1.01 | 1.04 | 0.431 | 0.0395 | 0.024
7 | PC-3 [JPC-3] | 1.06 | 1.11 | 0.992 | 1 | 0.834 | 0.854 | 0.964 | 0.736 | 0.328 | 0.334 | 0.879 | 0.919 | 0.883 | 0.866 | 0.805 | 0.785 | 0.788 | 0.66 | 0.321 | 0.419
